From patent US20060079453A1, “Hla binding peptides and their uses” (priority 2002, published 2006)
No end group written: not given here.

Experiments:
Assay in all cases: biochemical
Format in all cases: binding
HLA-A*0301 = HLA-A*0301 (Homo sapiens, UniProt P04439)
HLA-A*1101 = HLA-A*1101 (Homo sapiens, UniProt P04439, A114D/D185E/E176A/F33Y/L180Q/S129P/T187R)
HLA-A*3101 = HLA-A*3101 (Homo sapiens, UniProt P04439, A270S/D185E/E176V/E277Q/F33T/G231S/G80R/H175R/I121M/I218V/I322F/K168Q/L300P/L318F/M331R/P217A/Q94H/R138Q/T323A/T345S/T97I/V358M)
HLA-A*3301 = HLA-A*3301 (Homo sapiens, UniProt P04439, A270S/D185E/E176V/E277Q/E87N/F33T/G231S/H175R/I121M/I218V/I322F/K168Q/K210R/L300P/L318F/M331R/P217A/Q86R/Q94H/R138Q/T323A/T345S/T97I/V358M/Y195H)
HLA-A*6801 = HLA-A*6801 (Homo sapiens, UniProt P04439, A269V/D185E/E176V/E277Q/E87N/F33Y/G231S/I121M/I166T/I218V/L180W/L300P/L318F/N151K/P208A/P217A/Q86R/R169H/T345S)

Row | Sequence | IC50 (HLA-A*0301) [nM] | IC50 (HLA-A*1101) [nM] | IC50 (HLA-A*3101) [nM] | IC50 (HLA-A*3301) [nM] | IC50 (HLA-A*6801) [nM]
1 | AACWRSRRK | 75 | 770 | 3020 | 45300 | 12900
2 | ALERLLSLKK |  | 822 | 33600 | 18300 | 
3 | AQPATADYK | 3500 | 109 |  | 58900 | 
4 | ATRDLCIVYR | 237 |  | 4.7 | 44 | 28
5 | ATTDLTIVYR |  | 10 | 34 | 1740 | 14
6 | AVDGPGPGK |  | 19 | 36800 | > 112000 | 
7 | AVDLSFFLK | 226 |  | 6210 | > 27800 | 4040
8 | AVGPGPGLK | 18 | 3.6 | 128 | 75800 | 
9 | AVLQDIVLH |  |  | 6310 | 25800 | 27000
10 | AVSEIQNNK | 25 | 11 |  | 25400 | 14
11 | CFLFYSKVRK |  | 96 | 81 | 315 | 
12 | CLLFYSKVRR |  | 204 | 159 | 386 | 
13 | DSIPHAACHR | 2770 | 853 |  | 2.2 | 27
14 | ELFDKDTFFK | 144 |  | 3680 | 13 | 3.6
15 | EQRLPLLPK | 1090 | 765 |  | 987 | 1910
16 | EVYKFLFTDLR | 31200 | 602 |  | 4.3 | 11
17 | FAFTDLTIVY |  | 21200 | 42100 | 131000 | 346
18 | FLFTDLRIVYR | 672 |  | 58 | 21 | 1.4
19 | FVDLTIVYR | 29700 | 5310 | 2380 | 430 | 
20 | FVVQLDIQSTK | 3680 | 853 |  | 31400 | 2.7
21 | GLYNLLIRCLR |  | 1570 | 250 | 401 | 1620
22 | GTRQTRKNK |  | 3100 | 13400 | > 29700 | 18700

Row | Sequence | IC50 (HLA-A*0301) [nM] | IC50 (HLA-A*1101) [nM] | IC50 (HLA-A*3101) [nM] | IC50 (HLA-A*3301) [nM] | IC50 (HLA-A*6801) [nM]
23 | GTRQTRKNRK |  |  | 2490 | 60200 | 6000
24 | GVGPGPGLK | 47 | 4 |  | > 112000 | 
25 | GVLDGLIYSK |  | 21 | 6010 | > 25200 | 831
26 | GVNHQHLPK | 26 | 7.7 |  | 15600 | 
27 | IALLIIPPK |  | 108 |  | 1400 | 1960
28 | ILDLWVYK |  | 320 | 13700 | 30100 | 12100
29 | ILYRDCIAY |  | 1830 |  | 44700 | > 19600
30 | KAGPGGYPRK | 62 | 43 | 10700 | > 17800 | 
31 | KFIDFYSRIR |  | 9010 | 3.3 | 677 | 2550
32 | KFLEERVKK | 5340 | 2230 | 30 | 9740 | 
33 | KFSEYRHYCY |  | 7480 | 308 | 49400 | 14600
34 | KFSEYRHYNY | 5820 |  |  | 18400 | 1800
35 | KILIKIPVTK |  | 60 | 1660 | 25000 | 19600
36 | KISEYRHYNY | 42 |  |  | 35300 | 25100
37 | KMGPGPGK | 84 |  | 1140 | 106000 | 4160
38 | KQHTCYLIR |  | 213 | 13 | 2280 | 12200
39 | KSKFGYGAK | 36 | 596 |  | > 123000 | > 7630
40 | KTLEERVKR | 1960 |  | 37 | 1360 | 
41 | KTLGISYGRKK | 52 |  | 91 | 23400 | 647
42 | KVLCDLLIR | 363 |  | 66 | 5900 | 9050
43 | LLFYSKVRR | 56 | 73 |  | 276 | 11
